Experiments:
[1] = biological target: Serine/threonine-protein kinase WNK2 (Homo sapiens) (UniProt Q9Y3S1); assay: Inhibition of WNK2 (unknown origin) assessed as residual activity at 1000 nM by KINOMEscan analysis relative to control
[2] = biological target: Testis-specific serine/threonine-protein kinase 3 (Homo sapiens) (UniProt Q96PN8); assay: Inhibition of TSSK3 (unknown origin) assessed as residual activity at 1000 nM by KINOMEscan analysis relative to control
[3] = organism: Homo sapiens; assay: Inhibition of PIP5K1C (unknown origin) assessed as residual activity at 100 nM by KINOMEscan analysis relative to control
[4] = biological target: Tyrosine-protein kinase ABL1 (Homo sapiens) (UniProt P00519); assay: Inhibition of phosphorylated ABL1 (unknown origin) assessed as residual activity at 100 nM by KINOMEscan analysis relative to control
[5] = biological target: Serine/threonine-protein kinase RIO2 (Homo sapiens) (UniProt Q9BVS4); assay: Inhibition of RIOK2 (unknown origin) assessed as residual activity at 100 nM by KINOMEscan analysis relative to control
Chain of Serine/threonine-protein kinase RIO2 (Homo sapiens) (Q9BVS4 whole entry, looked up): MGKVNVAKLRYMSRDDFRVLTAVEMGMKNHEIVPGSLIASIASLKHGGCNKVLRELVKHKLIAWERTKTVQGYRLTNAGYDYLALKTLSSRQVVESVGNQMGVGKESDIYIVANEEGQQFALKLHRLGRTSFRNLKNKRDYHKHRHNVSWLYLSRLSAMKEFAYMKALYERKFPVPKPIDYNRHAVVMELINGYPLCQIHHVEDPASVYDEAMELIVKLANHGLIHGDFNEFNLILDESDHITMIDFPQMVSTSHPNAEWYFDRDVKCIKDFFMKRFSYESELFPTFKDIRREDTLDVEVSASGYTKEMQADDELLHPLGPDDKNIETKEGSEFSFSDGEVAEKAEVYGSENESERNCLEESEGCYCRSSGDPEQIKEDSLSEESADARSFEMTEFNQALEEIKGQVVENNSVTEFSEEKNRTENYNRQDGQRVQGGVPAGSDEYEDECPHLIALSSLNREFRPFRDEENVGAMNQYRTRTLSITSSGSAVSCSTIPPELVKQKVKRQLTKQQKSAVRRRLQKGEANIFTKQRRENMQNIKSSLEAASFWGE

[6] = biological target: Leucine-rich repeat serine/threonine-protein kinase 2 (Homo sapiens) (UniProt Q5S007); assay: Inhibition of LRRK2 (unknown origin) assessed as residual activity at 100 nM by KINOMEscan analysis relative to control
[7] = biological target: T1, Phosphatidylinositol 5-phosphate 4-kinase type-2 gamma (Homo sapiens) (UniProt Q8TBX8); assay: Inhibition of PIP5K2C (unknown origin) assessed as residual activity at 100 nM by KINOMEscan analysis relative to control
T1 sequence (whole entry): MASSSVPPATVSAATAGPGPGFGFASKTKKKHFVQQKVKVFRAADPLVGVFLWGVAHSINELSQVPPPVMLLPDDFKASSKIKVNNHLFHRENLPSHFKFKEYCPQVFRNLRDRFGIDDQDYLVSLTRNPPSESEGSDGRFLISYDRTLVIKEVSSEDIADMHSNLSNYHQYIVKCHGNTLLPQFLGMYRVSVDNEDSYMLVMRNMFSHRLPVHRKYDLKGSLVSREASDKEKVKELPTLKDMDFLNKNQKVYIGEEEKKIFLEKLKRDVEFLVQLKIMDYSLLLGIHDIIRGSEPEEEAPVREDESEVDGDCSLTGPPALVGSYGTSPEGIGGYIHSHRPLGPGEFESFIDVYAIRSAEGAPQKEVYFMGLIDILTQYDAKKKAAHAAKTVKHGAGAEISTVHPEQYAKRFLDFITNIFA

[8] = biological target: Vascular endothelial growth factor receptor 3 (Homo sapiens) (UniProt P35916); assay: Inhibition of FLT4 (unknown origin) assessed as residual activity at 100 nM by KINOMEscan analysis relative to control
[9] = biological target: Mitogen-activated protein kinase kinase kinase 14 (Homo sapiens) (UniProt Q99558); assay: Inhibition of NIK (unknown origin) assessed as residual activity at 100 nM by KINOMEscan analysis relative to control
Chain of Mitogen-activated protein kinase kinase kinase 14 (Homo sapiens) (Q99558 whole entry, looked up): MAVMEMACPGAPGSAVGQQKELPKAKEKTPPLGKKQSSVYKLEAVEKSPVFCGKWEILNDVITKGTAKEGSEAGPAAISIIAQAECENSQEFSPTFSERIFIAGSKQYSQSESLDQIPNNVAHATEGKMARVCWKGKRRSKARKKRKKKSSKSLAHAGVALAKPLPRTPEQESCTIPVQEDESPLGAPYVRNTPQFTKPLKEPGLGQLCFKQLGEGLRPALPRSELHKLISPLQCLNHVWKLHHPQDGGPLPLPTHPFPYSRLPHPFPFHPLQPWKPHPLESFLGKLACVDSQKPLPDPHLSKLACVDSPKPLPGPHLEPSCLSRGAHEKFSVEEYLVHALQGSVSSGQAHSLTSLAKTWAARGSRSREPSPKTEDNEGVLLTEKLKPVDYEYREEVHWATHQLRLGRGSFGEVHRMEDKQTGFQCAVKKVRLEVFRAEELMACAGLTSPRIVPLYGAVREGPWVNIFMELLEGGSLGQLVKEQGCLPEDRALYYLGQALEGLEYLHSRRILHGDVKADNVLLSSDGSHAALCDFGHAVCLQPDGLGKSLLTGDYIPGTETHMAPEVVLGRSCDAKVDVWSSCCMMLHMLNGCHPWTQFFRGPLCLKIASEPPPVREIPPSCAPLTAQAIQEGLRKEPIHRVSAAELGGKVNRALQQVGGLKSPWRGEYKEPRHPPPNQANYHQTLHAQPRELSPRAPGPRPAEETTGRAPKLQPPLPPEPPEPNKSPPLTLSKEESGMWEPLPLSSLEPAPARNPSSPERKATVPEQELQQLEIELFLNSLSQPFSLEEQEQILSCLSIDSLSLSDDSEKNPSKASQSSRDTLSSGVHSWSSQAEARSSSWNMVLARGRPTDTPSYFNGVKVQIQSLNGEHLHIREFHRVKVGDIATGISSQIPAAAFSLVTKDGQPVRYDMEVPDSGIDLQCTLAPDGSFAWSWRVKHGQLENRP

[10] = biological target: Tyrosine-protein kinase FRK (Homo sapiens) (UniProt P42685); assay: Inhibition of FRK (unknown origin) assessed as residual activity at 100 nM by KINOMEscan analysis relative to control
Chain of Tyrosine-protein kinase FRK (Homo sapiens) (P42685 whole entry): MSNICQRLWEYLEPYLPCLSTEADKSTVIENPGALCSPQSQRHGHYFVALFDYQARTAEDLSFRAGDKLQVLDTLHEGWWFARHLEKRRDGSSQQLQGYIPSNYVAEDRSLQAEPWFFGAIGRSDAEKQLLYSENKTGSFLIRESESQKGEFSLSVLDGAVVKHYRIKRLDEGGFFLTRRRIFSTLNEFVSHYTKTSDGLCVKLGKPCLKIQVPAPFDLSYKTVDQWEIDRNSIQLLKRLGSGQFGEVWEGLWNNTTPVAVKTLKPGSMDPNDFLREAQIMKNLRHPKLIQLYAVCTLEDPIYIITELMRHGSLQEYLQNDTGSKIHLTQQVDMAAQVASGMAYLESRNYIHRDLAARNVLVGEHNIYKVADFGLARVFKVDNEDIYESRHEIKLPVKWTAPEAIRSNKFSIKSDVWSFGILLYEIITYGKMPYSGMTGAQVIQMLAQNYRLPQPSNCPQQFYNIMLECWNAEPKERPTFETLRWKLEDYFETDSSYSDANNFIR

[11] = biological target: Myosin-IIIa (Homo sapiens) (UniProt Q8NEV4); assay: Inhibition of MYO3A (unknown origin) assessed as residual activity at 100 nM by KINOMEscan analysis relative to control
[12] = biological target: Dual specificity protein kinase CLK1 (Homo sapiens) (UniProt P49759); assay: Inhibition of CLK1 (unknown origin) assessed as residual activity at 100 nM by KINOMEscan analysis relative to control
Chain of Dual specificity protein kinase CLK1 (Homo sapiens) (P49759 whole entry, looked up): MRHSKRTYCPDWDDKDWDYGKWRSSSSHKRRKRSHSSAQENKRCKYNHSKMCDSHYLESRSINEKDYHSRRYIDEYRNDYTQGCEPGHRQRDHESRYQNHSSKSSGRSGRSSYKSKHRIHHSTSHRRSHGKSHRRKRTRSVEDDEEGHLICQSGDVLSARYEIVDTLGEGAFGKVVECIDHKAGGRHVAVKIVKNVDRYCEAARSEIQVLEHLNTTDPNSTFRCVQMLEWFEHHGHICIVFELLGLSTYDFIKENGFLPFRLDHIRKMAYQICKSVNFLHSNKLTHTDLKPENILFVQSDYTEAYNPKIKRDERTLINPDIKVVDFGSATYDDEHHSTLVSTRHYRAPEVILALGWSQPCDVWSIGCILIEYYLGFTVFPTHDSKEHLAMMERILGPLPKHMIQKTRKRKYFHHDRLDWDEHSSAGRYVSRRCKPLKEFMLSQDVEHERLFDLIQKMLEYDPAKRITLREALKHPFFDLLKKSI

[13] = biological target: Macrophage colony-stimulating factor 1 receptor (Homo sapiens) (UniProt P07333); assay: Inhibition of CSF1R (unknown origin) assessed as residual activity at 100 nM by KINOMEscan analysis relative to control
Chain of Macrophage colony-stimulating factor 1 receptor (Homo sapiens) (P07333 whole entry): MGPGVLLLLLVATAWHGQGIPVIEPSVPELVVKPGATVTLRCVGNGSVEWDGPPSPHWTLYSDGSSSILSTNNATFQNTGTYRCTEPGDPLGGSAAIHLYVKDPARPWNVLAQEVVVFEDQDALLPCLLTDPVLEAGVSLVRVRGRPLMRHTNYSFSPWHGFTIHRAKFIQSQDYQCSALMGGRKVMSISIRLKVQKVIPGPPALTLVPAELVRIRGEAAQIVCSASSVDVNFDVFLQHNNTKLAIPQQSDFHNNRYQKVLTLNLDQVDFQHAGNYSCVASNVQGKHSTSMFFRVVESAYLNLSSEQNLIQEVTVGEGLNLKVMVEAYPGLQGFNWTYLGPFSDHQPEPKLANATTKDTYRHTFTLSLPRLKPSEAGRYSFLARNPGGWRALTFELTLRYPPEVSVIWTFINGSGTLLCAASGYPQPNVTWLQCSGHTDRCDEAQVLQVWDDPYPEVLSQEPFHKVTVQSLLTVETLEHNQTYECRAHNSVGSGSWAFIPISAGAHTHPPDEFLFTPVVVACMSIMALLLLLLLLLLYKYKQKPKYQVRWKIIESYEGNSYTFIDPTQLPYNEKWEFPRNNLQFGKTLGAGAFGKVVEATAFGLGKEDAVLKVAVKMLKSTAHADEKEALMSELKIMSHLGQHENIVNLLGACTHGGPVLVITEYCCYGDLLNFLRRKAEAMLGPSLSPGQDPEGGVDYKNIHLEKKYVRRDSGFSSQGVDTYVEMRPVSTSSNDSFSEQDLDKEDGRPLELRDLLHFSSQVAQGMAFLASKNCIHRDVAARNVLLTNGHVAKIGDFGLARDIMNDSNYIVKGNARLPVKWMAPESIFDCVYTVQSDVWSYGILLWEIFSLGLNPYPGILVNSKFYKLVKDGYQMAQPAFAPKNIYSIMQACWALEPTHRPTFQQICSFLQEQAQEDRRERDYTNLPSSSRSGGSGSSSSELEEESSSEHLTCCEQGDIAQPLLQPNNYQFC

[14] = biological target: Serine/threonine-protein kinase MARK2 (Homo sapiens) (UniProt Q7KZI7); assay: Inhibition of MARK2 (unknown origin) assessed as residual activity at 100 nM by KINOMEscan analysis relative to control
Chain of Serine/threonine-protein kinase MARK2 (Homo sapiens) (Q7KZI7 whole entry): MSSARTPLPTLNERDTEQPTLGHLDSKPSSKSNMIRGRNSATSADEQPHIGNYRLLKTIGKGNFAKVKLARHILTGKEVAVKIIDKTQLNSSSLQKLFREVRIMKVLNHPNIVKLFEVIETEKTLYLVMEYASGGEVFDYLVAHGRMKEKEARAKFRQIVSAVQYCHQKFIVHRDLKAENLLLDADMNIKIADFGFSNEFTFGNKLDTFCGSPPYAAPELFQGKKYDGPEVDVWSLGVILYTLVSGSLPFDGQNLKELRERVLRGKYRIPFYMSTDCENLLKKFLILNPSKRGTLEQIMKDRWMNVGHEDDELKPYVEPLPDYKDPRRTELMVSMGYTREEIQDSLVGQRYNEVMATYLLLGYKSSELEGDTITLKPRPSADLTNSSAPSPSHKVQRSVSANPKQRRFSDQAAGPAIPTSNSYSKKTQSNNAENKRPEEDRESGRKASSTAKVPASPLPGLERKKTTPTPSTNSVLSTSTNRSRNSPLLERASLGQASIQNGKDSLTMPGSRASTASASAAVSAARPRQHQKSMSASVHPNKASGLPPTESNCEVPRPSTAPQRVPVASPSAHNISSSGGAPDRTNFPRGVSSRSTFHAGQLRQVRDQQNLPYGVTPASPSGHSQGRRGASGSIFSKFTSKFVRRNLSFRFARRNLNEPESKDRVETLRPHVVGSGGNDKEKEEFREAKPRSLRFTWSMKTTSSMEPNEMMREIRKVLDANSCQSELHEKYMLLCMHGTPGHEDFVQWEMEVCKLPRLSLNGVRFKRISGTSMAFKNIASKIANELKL

[15] = biological target: Serine/threonine-protein kinase Nek7 (Homo sapiens) (UniProt Q8TDX7); assay: Inhibition of NEK7 (unknown origin) assessed as residual activity at 100 nM by KINOMEscan analysis relative to control
Chain of Serine/threonine-protein kinase Nek7 (Homo sapiens) (Q8TDX7 whole entry, looked up, canonical isoform): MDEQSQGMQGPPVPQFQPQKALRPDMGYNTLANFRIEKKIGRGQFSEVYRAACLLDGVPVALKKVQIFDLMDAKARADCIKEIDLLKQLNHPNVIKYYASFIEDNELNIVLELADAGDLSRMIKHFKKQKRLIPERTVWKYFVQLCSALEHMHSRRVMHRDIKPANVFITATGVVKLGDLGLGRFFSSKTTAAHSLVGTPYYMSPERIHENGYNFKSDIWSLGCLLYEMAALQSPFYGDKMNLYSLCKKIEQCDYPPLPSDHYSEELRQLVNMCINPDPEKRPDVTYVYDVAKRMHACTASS

[16] = biological target: Casein kinase I isoform epsilon (Homo sapiens) (UniProt P49674); assay: Inhibition of CSNK1E (unknown origin) assessed as residual activity at 100 nM by KINOMEscan analysis relative to control
[17] = biological target: T2, Serine/threonine-protein kinase ULK1 (Homo sapiens) (UniProt O75385); assay: Inhibition of ULK1 (unknown origin) assessed as residual activity at 100 nM by KINOMEscan analysis relative to control
T2 sequence (whole entry): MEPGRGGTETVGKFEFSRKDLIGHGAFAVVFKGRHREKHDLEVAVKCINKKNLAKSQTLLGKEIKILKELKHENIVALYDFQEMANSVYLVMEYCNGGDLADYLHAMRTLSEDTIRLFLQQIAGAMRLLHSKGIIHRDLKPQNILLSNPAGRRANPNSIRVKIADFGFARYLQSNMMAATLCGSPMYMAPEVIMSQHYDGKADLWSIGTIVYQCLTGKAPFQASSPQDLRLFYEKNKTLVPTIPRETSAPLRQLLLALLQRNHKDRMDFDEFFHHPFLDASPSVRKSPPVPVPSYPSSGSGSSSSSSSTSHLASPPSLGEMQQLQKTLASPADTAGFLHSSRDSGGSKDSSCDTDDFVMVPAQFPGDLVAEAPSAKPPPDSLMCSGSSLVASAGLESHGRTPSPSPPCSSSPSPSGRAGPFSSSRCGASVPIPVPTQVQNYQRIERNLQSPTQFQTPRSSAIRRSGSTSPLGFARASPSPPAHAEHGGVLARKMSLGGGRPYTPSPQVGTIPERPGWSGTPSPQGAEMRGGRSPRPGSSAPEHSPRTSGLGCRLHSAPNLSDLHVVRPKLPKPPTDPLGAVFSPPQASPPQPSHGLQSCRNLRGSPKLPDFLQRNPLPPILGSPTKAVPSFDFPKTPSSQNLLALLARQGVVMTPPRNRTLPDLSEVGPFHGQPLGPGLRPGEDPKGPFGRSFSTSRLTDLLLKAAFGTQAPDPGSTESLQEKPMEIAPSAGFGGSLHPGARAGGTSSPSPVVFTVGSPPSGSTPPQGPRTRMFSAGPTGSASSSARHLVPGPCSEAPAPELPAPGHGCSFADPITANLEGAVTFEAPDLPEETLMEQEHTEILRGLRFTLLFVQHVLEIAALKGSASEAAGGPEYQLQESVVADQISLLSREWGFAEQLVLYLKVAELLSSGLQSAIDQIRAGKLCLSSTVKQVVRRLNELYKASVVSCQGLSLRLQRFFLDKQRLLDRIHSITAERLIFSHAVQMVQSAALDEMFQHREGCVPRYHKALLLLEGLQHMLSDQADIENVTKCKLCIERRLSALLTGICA

Chain of Testis-specific serine/threonine-protein kinase 3 (Homo sapiens) (Q96PN8 whole entry): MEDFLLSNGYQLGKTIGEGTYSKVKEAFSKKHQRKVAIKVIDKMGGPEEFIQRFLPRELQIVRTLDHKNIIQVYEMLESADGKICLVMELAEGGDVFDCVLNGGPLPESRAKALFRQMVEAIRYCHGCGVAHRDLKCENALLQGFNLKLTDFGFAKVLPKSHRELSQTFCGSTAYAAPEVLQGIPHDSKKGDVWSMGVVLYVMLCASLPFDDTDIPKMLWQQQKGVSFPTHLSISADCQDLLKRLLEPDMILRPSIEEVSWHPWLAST

| SMILES | Activity [1] [%] | Activity [2] [%] | Activity [3] [%] | Activity [4] [%] | Activity [5] [%] | Activity [6] [%] | Activity [7] [%] | Activity [8] [%] | Activity [9] [%] | Activity [10] [%] | Activity [11] [%] | Activity [12] [%] | Activity [13] [%] | Activity [14] [%] | Activity [15] [%] | Activity [16] [%] | Activity [17] [%] |
| --- | --- | --- | --- | --- | --- | --- | --- | --- | --- | --- | --- | --- | --- | --- | --- | --- | --- |
| COc1cc2nc(C)nc(N[C@H](C)c3cccc(-c4cn[nH]c4)c3)c2cc1OC | 100 | 77 |  |  |  |  |  |  |  |  |  |  |  |  |  |  |  |
| COc1cc2ncnc(N[C@H](C)c3cccc4ccccc34)c2cc1OC |  |  | 63 | 93 | 65 | 82 | 96 | 92 | 81 | 93 | 100 | 91 | 100 | 82 | 100 | 97 | 96 |

From ChEMBL document CHEMBL5678818, “Discovery of potent SOS1 inhibitors that block RAS activation via disruption of the RAS-SOS1 interaction” (Proc Natl Acad Sci U S A, 2019)
